Results from US4616020A, “Medicaments, vicinal dihydroxyalkylxanthines contained therein, processes for the preparation of these xanthine compounds and intermediate products suitable for these” (Hoechst Aktiengesellschaft, priority 1981, dated 1986).
Like-named read-outs stand apart in the source and are kept apart here.

What was measured:
Ratio of LD50 to ED50 = assay type: in vivo, mouse (LD50); guinea-pigs (ED50)
Protocol: (§1) The test substances were administered in aqueous solution either intravenously (i.v.) or intraduodenally (i.d.). The ED50 values, which represent that dose in mg/kg at which the experimentally produced spasm is decreased by one half compared to that in untreated animals, were determined graphically from the dose-activity curves.
(§2) Determination of the LD50 values was by the standard method of the mortality occurring within 7 days among NMRI mice after a single intravenous (i.v.), intraperitoneal (i.p.) or oral (p.o.) administration.

[1] = system: acetylcholine-induced bronchospasm; assay: Bronchospasmolytic activity (Konzett-Rossler): inhibition of acetylcholine-induced bronchospasm in guinea-pigs; assay type: in vivo; conditions: Cavia porcellus, guinea-pig, urethane anaesthesia, read-out: Bronchospasmolytic effect (ED50) compared to acetylcholine
Protocol: as §1

[2] = Acute toxicity, mortality within 7 days among NMRI mice after single administration; conditions: in vivo, mouse
Description: as §2
*determined by the method of Litchfield and Wilcoxon (J. Pharmacol. exp.

central nervous system = system: central nervous system; set-up: species or system mice; conditions: mouse, in vivo, po
Protocol: In contrast, the compounds of the formula I according to the invention have no component stimulating the central nervous system, but, on the contrary, exert a slight depressant effect on the central nervous system which is assessed to be particularly advantageous from the therapeutic point of view. Thus, the spontaneous motility of mice, for example, is decreased by 53% for a period of 11 hours after oral administration of 50 mg/kg of the compound from Example 1.

[3] = system: bronchospasm induced with bradykinin; assay: Inhibitory effect on bronchospasm induced in guinea-pigs with bradykinin; assay type: in vivo; conditions: for ED50: Cavia porcellus, read-out: ED50, bronchospasm induced with bradykinin
Description: Since it is regarded as proven that, apart from the biogenic amines, acetylcholine, histamine and serotonine, listed in Table 4, bradykinin also plays an important part as a mediator substance in the provocation of asthma attacks, the inhibitory effect on the bronchospasm induced in guinea-pigs with bradykinin was investigated.

[4] = system: bronchospastic reactions induced with aerosols of acetylcholine, histamine and ascaris extract; assay: Pulmonary function test on the anaesthetized dog: inhibition of bronchospastic reactions induced with aerosols of acetylcholine, histamine and ascaris extract; assay type: in vivo
[5] = system: serotonine-induced bronchospasm; assay: Bronchospasmolytic activity (Konzett-Rossler): inhibition of serotonine-induced bronchospasm in guinea-pigs; assay type: in vivo; conditions: Cavia porcellus, guinea-pig, urethane anaesthesia, read-out: Bronchospasmolytic effect (ED50) compared to serotonine
Protocol: as §1

[6] = system: histamine-induced bronchospasm; assay: Bronchospasmolytic activity (Konzett-Rossler): inhibition of histamine-induced bronchospasm in guinea-pigs; assay type: in vivo; conditions: Cavia porcellus, guinea-pig, urethane anaesthesia, read-out: Bronchospasmolytic effect (ED50) compared to histamine
Protocol: as §1

[7] = background statement; cited from earlier work
[8] = background statement; cited from earlier work; remark: listed apart in the source
[9] = LD50 i.v. mouse, ED50 i.v. guinea-pig
[10] = LD50 i.p. mouse, ED50 i.v. guinea-pig

| Structure (SMILES) | ratio of LD50 to ED50 (head is drawing 107) (Ratio of LD50 to ED50; [9]) | ED50 ([1]; iv) | LD50 at 168 h ([2]; iv) | ED50 ([5]; iv) | ED50 ([6]; iv) | further results |
| --- | --- | --- | --- | --- | --- | --- |
| CCCn1c(=O)c2c(ncn2CCCCC(O)CO)n(CC)c1=O (stereo not shown) [Example 1, 3-Ethyl-7-(5,6-dihydroxyhexyl)-1-propylxanthine] | 305 | 2 mg/kg | 254 mg/kg | 0.3 mg/kg | 0.2 mg/kg | ratio of LD50 to ED50 (head is drawing 107) (Ratio of LD50 to ED50; LD50 p.o. mouse, ED50 i.d. guinea-pig): 94; ED50 ([1]; i.d. (intraduodenal)): 6.3 mg/kg; LD50 at 168 h ([2]; po): 1450 mg/kg; decrease in spontaneous motility (central nervous system; 50 mg/kg): 53%; ED50 ([3]; iv, guinea-pigs): 1 to 3 mg/kg; ED50 ([3]; i.d., guinea-pigs): 4 to 6.3 mg/kg; times more effective than theophylline-ethylenediamine, bradykinin bronchospasm ([3]; i.d.): about 6 times; times more effective than theophylline-ethylenediamine, bradykinin bronchospasm ([3]; i.v.): about 3 times; inhibitory effect on bronchospastic reactions ([4]; 12 mg/kg i.v.): significant inhibitory effect; ED50 ([5]; i.d. (intraduodenal)): 15 mg/kg; ED50 ([6]; i.d. (intraduodenal)): 25 mg/kg |
| CCn1c(=O)c2c(ncn2CCCCC(O)CO)n(CC)c1=O (stereo not shown) [Example 2, 1,3-Diethyl-7-(5,6-dihydroxyhexyl)xanthine] | 163 | 2 mg/kg | 325 mg/kg | 2 mg/kg | 2 mg/kg |  |
| CCCCn1c(=O)n(CCCC(O)CO)c(=O)c2c1ncn2C (stereo not shown) [Example 7, 3-Butyl-1-(4,5-dihydroxypentyl)-7-methylxanthine] | > 42 | 3 mg/kg | > 200 mg/kg |  | 6.5 mg/kg |  |
| CCn1c(=O)c2c(ncn2CC)n(CCCCC(O)CO)c1=O (stereo not shown) [Example 8, 1,7-Diethyl-3-(5,6-dihydroxyhexyl)xanthine] | > 60 | 6.5 mg/kg | > 300 mg/kg | 2 mg/kg | 6.5 mg/kg |  |
| CCCn1c(=O)n(CCCCC(O)CO)c(=O)c2c1ncn2C (stereo not shown) [Example 10] | 83 | 3 mg/kg | 250 mg/kg | 3 mg/kg | 3 mg/kg |  |
| CCCn1c(=O)c2c(ncn2CCC(O)CO)n(CCC)c1=O (stereo not shown) [Example 12] |  | 6.5 mg/kg |  | 10 mg/kg | 10 mg/kg | ratio of LD50 to ED50 (head is drawing 107) (Ratio of LD50 to ED50; [10]): > 68; LD50 at 168 h ([2]; ip): > 600 mg/kg |
| CCCn1c(=O)c2c(ncn2CCCC(O)CO)n(CCC)c1=O (stereo not shown) [Example 13] |  | 6.5 mg/kg |  |  | 6.5 mg/kg | ratio of LD50 to ED50 (head is drawing 107) (Ratio of LD50 to ED50; [10]): 138; LD50 at 168 h ([2]; ip): 900 mg/kg |
| CCn1c(=O)c2c(ncn2CCCCC(O)CO)n(C)c1=O (stereo not shown) [Example 17] | > 60 | 2 mg/kg | > 300 mg/kg | 6.5 mg/kg | 6.5 mg/kg |  |
| CCCn1c(=O)c2c(ncn2CCCCC(O)CO)n(C)c1=O (stereo not shown) [Example 18] | 46 | 6.5 mg/kg | 300 mg/kg | 6.5 mg/kg | 6.5 mg/kg |  |
| CCCCn1c(=O)c2c(ncn2CCCCC(O)CO)n(C)c1=O (stereo not shown) [Example 19] | 63 | 2 mg/kg | 147 mg/kg | 3 mg/kg | 2 mg/kg |  |
| CCCCCn1c(=O)c2c(ncn2CCCCC(O)CO)n(C)c1=O (stereo not shown) [Example 21] | 52 | 3 mg/kg | 155 mg/kg | 3 mg/kg | 3 mg/kg |  |
| CC(C)CCn1c(=O)c2c(ncn2CCCCC(O)CO)n(C)c1=O (stereo not shown) [Example 22] | 48 | 1 mg/kg | 167 mg/kg | 6.5 mg/kg | 3 mg/kg |  |
| CCn1c(=O)n(C)c(=O)c2c1ncn2CCCCC(O)CO (stereo not shown) [Example 24] | 49 | 6.5 mg/kg | 300 mg/kg | 10 mg/kg | 2 mg/kg |  |
| CCn1c(=O)n(C(C)C)c(=O)c2c1ncn2CCCCC(O)CO (stereo not shown) [Example 25] | > 114 | 2 mg/kg | > 400 mg/kg | 2 mg/kg | 6.5 mg/kg |  |
| CCCCn1c(=O)c2c(ncn2CCCCC(O)CO)n(CC)c1=O (stereo not shown) [Example 26] | 146 | 2 mg/kg | 205 mg/kg | 0.6 mg/kg | 1.6 mg/kg |  |
| CCCCCn1c(=O)c2c(ncn2CCCCC(O)CO)n(CC)c1=O (stereo not shown) [Example 28] | 75 | 2 mg/kg | 200 mg/kg | 3 mg/kg | 3 mg/kg |  |
| CCCn1c(=O)n(C)c(=O)c2c1ncn2CCCCC(O)CO (stereo not shown) [Example 30] | 59 | 6.5 mg/kg | 250 mg/kg |  | 2 mg/kg |  |
| CCCn1c(=O)c2c(ncn2CCCC(O)C(C)O)n(CC)c1=O (stereo not shown) [Example 33] | > 55 | 6 mg/kg | > 200 mg/kg | 2 mg/kg | 3 mg/kg |  |
| CCCn1c(=O)c2c(ncn2CCCCCC(O)CO)n(CC)c1=O (stereo not shown) [Example 51] | 150 | 2 mg/kg | 300 mg/kg |  | 2 mg/kg |  |
| Cn1c(=O)c2[nH]cnc2n(C)c1=O.NCCN [Theophylline-ethylenediamine, theophylline-ethylenediamine, reference compound] |  | 8.3 mg/kg | 195 mg/kg | 7.3 mg/kg | 5.6 mg/kg | therapeutic range [7]: not associated with a significant increase in the therapeutic range; LD50 at 168 h ([2]; po): 550 mg/kg; increase in spontaneous motility (central nervous system; 30 mg/kg): 186%; ED50 ([3]; iv): 3 to 10 mg/kg; ED50 [3]: 25 to 40 mg/kg |
| NCCN [ethylenediamine] |  |  |  |  |  | side-effects [7]: deleterious effect on the cardiovascular system |
| Cn1c(=O)c2[nH]cnc2n(C)c1=O [theophylline, 1,3-dimethylxanthine] |  |  |  |  |  | therapeutic range [7]: very narrow therapeutic range; effect on bronchospastic reactions ([4]; doses up to 20 mg/kg i.v.): no effect; water solubility [8]: lack of water solubility |
